One experiment deals with T1, CDK2/Cyclin E1 (Homo sapiens, UniProt P24941).
T1 construct: purchased 14-475
As to the kind of experiment: Caliper Assay (LabChip EZ Reader mobility shift assay), inhibition of CDK2/Cyclin E1 activity. The settings on record: 2.5 nM CDK2/Cyclin E1(14-475), 100 μM ATP, 30 min preincubation; read-out: Caliper Assay (CDK2/CCNE1): IC50. Type of experiment: biochemical. The procedure, abridged: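 Compounds were preincubated 30 min with CDK2/Cyclin E1(14-475), then run for 100 min with 2.5 nM enzyme, 100 μM ATP and 1.5 μM 5-FAM-QSPKKG peptide in HEPES pH 7.5 (final). Reactions were EDTA-stopped and substrate-to-product conversion read by mobility shift. IC50 came from a four-parameter fit.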

For another experiment, the system named is Kuramochi cells. Description: IncuCyte Kuramochi Assay (cell proliferation). Type of experiment: cell-based. The settings on record: Kuramochi cells labeled with mApple-H2B, cell count, read-out: IncuCyte - Kuramochi RB-WT: IC50. The procedure, abridged:
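GI50 came from dose-response fits of cell-count fold change between 0 and 72 h, normalized to DMSO controls. Counts were fluorescent nuclei from live-cell images over a 10-point, ½ log series starting at 20 μM.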

Read-outs that look alike come from different tables or passages of the source.

For the compound `Cc1cc(C)n([C@@H](C)c2nc(C3CN(C(=O)c4cnn(Cc5ccccc5)c4)CC34CN(C(=O)[C@H]3CC3(C)C)C4)no2)n1` (stereo partly drawn) [I-21, (1-benzyl-1H-pyrazol-4-yl)(8-(5-(1-(3,5-dimethyl-1H-pyrazol-1-yl)ethyl)-1,2,4-oxadiazol-3-yl)-2-((S)-2,2-dimethylcyclopropane-1-carbonyl)-2,6-diazaspiro[3.4]octan-6-yl)methanone], the IC50 is 0.1 to 1 µM at CDK2/Cyclin E1 and above 10 µM in the experiment with Kuramochi cells (72 h).
For `O=C(C1CCNCC1)N1CC(c2nnc(C(F)(F)c3ccc(Cl)c(Cl)c3)o2)C2(C1)CN(C(=O)[C@H]1CC1(F)F)C2` (stereo partly drawn) [I-150, (8-(5-((3,4-dichlorophenyl)difluoromethyl)-1,3,4-oxadiazol-2-yl)-2-((R)-2,2-difluorocyclopropane-1-carbonyl)-2,6-diazaspiro[3.4]octan-6-yl)(piperidin-4-yl)methanone], the IC50 at CDK2/Cyclin E1 and in the experiment with Kuramochi cells (72 h) was above 10 µM in each case.
As to `O=C(c1cncs1)N1CC(c2nnc(Cc3ccc(Cl)c(Cl)c3)o2)C2(C1)CN(c1nc3ccccc3o1)C2` (centres unmarked) [I-41], the IC50 on CDK2/Cyclin E1 and in the experiment with Kuramochi cells (72 h) was above 10 µM in each case.
As to `CC1(C)C[C@@H]1C(=O)N1CC2(CN(C(=O)c3cncs3)CC2c2nnc(C(F)(F)c3ccc(C4CC4)cc3)o2)C1` (some centres unmarked) [I-40], the IC50 at CDK2/Cyclin E1 was 0.1 to 1 µM; with Kuramochi cells (72 h), above 10 µM.
Taken in the same sequence, the figures for `C[C@@H](NC(=O)c1coc(C2CN(C(=O)c3cnn(Cc4ccccc4)c3)CC23CN(C(=O)[C@H]2CC2(C)C)C3)n1)C1CCCCC1` (some centres unmarked) [I-90] were 0.01 to 0.1 µM and 5 to 10 µM.
For the compound `C=C(c1ccc(C(F)(F)c2nnc(C3CN(C(=O)c4cncs4)CC34CN(C(=O)[C@H]3CC3(C)C)C4)o2)cc1)C(F)(F)F` (stereo partly drawn) [I-198, (8-(5-(difluoro(4-(3,3,3-trifluoroprop-1-en-2-yl)phenyl)methyl)-1,3,4-oxadiazol-2-yl)-2-((S)-2,2-dimethylcyclopropane-1-carbonyl)-2,6-diazaspiro[3.4]octan-6-yl)(thiazol-5-yl)methanone], the IC50 at CDK2/Cyclin E1 was in the range of 0.01 to 0.1 µM; with Kuramochi cells (72 h), 0.5 to 5 µM.
On to `O=C(C1COC1)N1CC(c2nnc(C(F)(F)c3ccc(Cl)c(Cl)c3)o2)C2(C1)CN(C(=O)[C@H]1CC1(F)F)C2` (some centres unmarked) [I-153], for which the IC50 at CDK2/Cyclin E1 and with Kuramochi cells (72 h) was above 10 µM each time.
`CC1(C)C[C@@H]1C(=O)N1CC2(CN(C(=O)c3cncs3)CC2c2nnc(C(F)(F)c3ccc(Cl)cc3)o2)C1` (some centres unmarked) [I-65]: the IC50 at CDK2/Cyclin E1 is 1 to 10 µM; in the experiment with Kuramochi cells (72 h), above 10 µM.
The like results for `C[C@H](NC(=O)c1coc(C2CN(C(=O)c3cnn(Cc4ccccc4)c3)CC23CN(C(=O)[C@H]2CC2(C)C)C3)n1)c1ccccc1` (some centres unmarked) [I-88] were, in that order, 0.1 to 1 µM and above 10 µM.
Regarding `O=C(C1CNC1)N1CC(c2nnc(C(F)(F)c3ccc(Cl)c(Cl)c3)o2)C2(C1)CN(C(=O)[C@H]1CC1(F)F)C2` (some centres unmarked) [I-147], the figures for the IC50 on CDK2/Cyclin E1 and in the experiment on Kuramochi cells (72 h) were above 100 µM and above 10 µM, respectively.
The like results for `CC1(C)C[C@@H]1C(=O)N1CC2(CN(C(=O)c3cncs3)CC2c2nnc(C3(c4cccc(C5CCOCC5)n4)COC3)o2)C1` (some centres unmarked) [I-97] were, in that order, 0.1 to 1 µM and above 10 µM.
With `CC(c1nc(C2CN(C(=O)c3cncs3)CC23CN(C(=O)[C@H]2CC2(C)C)C3)no1)n1ccc(C2CCCC2)n1` (single isomer, unassigned) [I-36 4th], the IC50 is 0.01 to 0.1 µM on CDK2/Cyclin E1 and above 10 µM with Kuramochi cells (72 hours).
Turning to `CC1(C)C[C@@H]1C(=O)N1CC2(CN(C(=O)c3cnn(Cc4ccccc4)c3)CC2c2nnc(CC3CCC(F)(F)CC3)o2)C1` (some centres unmarked) [I-20], the IC50 was 1 to 10 µM on CDK2/Cyclin E1 and above 10 µM in the experiment on Kuramochi cells (72 h).
The like results for `CC1(C)C[C@@H]1C(=O)N1CC2(CN(C(=O)c3cnn(Cc4ccccc4)c3)CC2c2cc(NC(=O)C3CC3)on2)C1` (stereo partly drawn) [I-7, N-(3-(6-(1-benzyl-1H-pyrazole-4-carbonyl)-2-((S)-2,2-dimethylcyclopropane-1-carbonyl)-2,6-diazaspiro[3.4]octan-8-yl)isoxazol-5-yl)cyclopropanecarboxamide] were, in that order, 0.1 to 1 µM and 5 to 10 µM.
With `O=C(c1cncs1)N1CC(c2nc3cc(Oc4ccccc4)ccc3o2)C2(C1)CN(C(=O)[C@H]1CC1(F)F)C2` (stereo partly drawn) [I-145, (2-((R)-2,2-difluorocyclopropane-1-carbonyl)-8-(5-phenoxybenzo[d]oxazol-2-yl)-2,6-diazaspiro[3.4]octan-6-yl)(thiazol-5-yl)methanone], the IC50 at CDK2/Cyclin E1 and in the experiment with Kuramochi cells (72 h) was above 10 µM each time.
Regarding `CCOc1cc(C)nn1C(C)c1nc(C2CN(C(=O)c3cncs3)CC23CN(C(=O)[C@H]2CC2(C)C)C3)no1` (stereo partly drawn) [I-42, (2-((S)-2,2-dimethylcyclopropane-1-carbonyl)-8-(5-(1-(5-ethoxy-3-methyl-1H-pyrazol-1-yl)ethyl)-1,2,4-oxadiazol-3-yl)-2,6-diazaspiro[3.4]octan-6-yl)(thiazol-5-yl)methanone], the values for the IC50 on CDK2/Cyclin E1 and in the experiment with Kuramochi cells (72 h) were 1 to 10 µM and above 10 µM, respectively.
The like results for `CC1(C)C[C@@H]1C(=O)N1CC2(CN(C(=O)c3cncs3)CC2c2cn(Cc3ccc(C4CC4)cc3)nn2)C1` (some centres unmarked) [I-193] were, in that order, 1 to 10 µM and above 10 µM.
The like results for `CC1(C)C[C@@H]1C(=O)N1CC2(CN(C(=O)c3cnn(Cc4ccccc4)c3)CC2c2noc(COC3CCCC3)n2)C1` (some centres unmarked) [I-84] were, in that order, 1 to 10 µM and above 10 µM.
Taken in the same sequence, the figures for `CC1(C)C[C@@H]1C(=O)N1CC2(CN(C(=O)c3cncs3)CC2c2nnc(Cc3nc4ccccc4o3)o2)C1` (some centres unmarked) [I-67] were 1 to 10 µM and above 10 µM.
Consider `CC1(C)C[C@@H]1C(=O)N1CC2(CN(C(=O)c3cnn(Cc4ccccc4)c3)CC2c2nnc(Cc3ccc(Cl)c(Cl)c3)[nH]2)C1` (stereo partly drawn) [I-6, (1-benzyl-1H-pyrazol-4-yl)(8-(5-(3,4-dichlorobenzyl)-4H-1,2,4-triazol-3-yl)-2-((S)-2,2-dimethylcyclopropane-1-carbonyl)-2,6-diazaspiro[3.4]octan-6-yl)methanone], for which the IC50 on CDK2/Cyclin E1 is 1 to 10 µM; in the experiment with Kuramochi cells (72 h), 5 to 10 µM.
Taken in the same sequence, the figures for `O=C(c1noc2cc(Cl)ccc12)N1CC(c2nnc(C(F)(F)c3ccc(Cl)c(Cl)c3)o2)C2(C1)CN(C(=O)[C@H]1CC1(F)F)C2` (some centres unmarked) [I-152] were above 10 µM and above 10 µM.
In the case of `CC(c1nc(C2CN(C(=O)c3cncs3)CC23CN(C(=O)[C@H]2CC2(C)C)C3)no1)n1ccc(C2CCCC2)n1` (single isomer, unassigned) [I-36 5th], the IC50 is at most 0.01 µM at CDK2/Cyclin E1 and above 10 µM in the experiment with Kuramochi cells (72 hours).
As for `CC1(C)C[C@@H]1C(=O)N1CC2(CN(C(=O)c3cncs3)CC2c2nnc(Cc3ccc(C4CCOCC4)c(Cl)c3)o2)C1` (some centres unmarked) [I-31], the IC50 on CDK2/Cyclin E1 is 0.1 to 1 µM; in the experiment on Kuramochi cells (72 h), above 10 µM.
The like results for `O=C(c1cncs1)N1CC(c2nnc(Cc3ccc(Cl)c(Cl)c3)o2)C2(C1)CN(c1cccc[n+]1[O-])C2` (centres unmarked) [I-60] were, in that order, above 10 µM and above 10 µM.
The like results for `O=C(c1cncs1)N1CC(c2nnc(C(F)(F)c3ccc(Cl)c(Cl)c3)o2)C2(C1)CN(C1CCOC1)C2` (centres unmarked) [I-154, (8-(5-((3,4-dichlorophenyl)difluoromethyl)-1,3,4-oxadiazol-2-yl)-2-(tetrahydrofuran-3-yl)-2,6-diazaspiro[3.4]octan-6-yl)(thiazol-5-yl)methanone] were, in that order, above 10 µM and above 10 µM.
Turning to `O=C(c1cn[nH]c1)N1CC(c2nnc(C(F)(F)c3ccc(Cl)c(Cl)c3)o2)C2(C1)CN(C(=O)[C@H]1CC1(F)F)C2` (stereo partly drawn) [I-191, (8-(5-((3,4-dichlorophenyl)difluoromethyl)-1,3,4-oxadiazol-2-yl)-2-((R)-2,2-difluorocyclopropane-1-carbonyl)-2,6-diazaspiro[3.4]octan-6-yl)(1H-pyrazol-4-yl)methanone], the IC50 was 1 to 10 µM on CDK2/Cyclin E1 and above 10 µM with Kuramochi cells (72 h).
Regarding `CC(C)(c1ccc(Cl)c(Cl)c1)c1nnc(C2CN(C(=O)c3cncs3)CC23CN(C(=O)[C@H]2CC2(C)C)C3)o1` (some centres unmarked) [I-39], the IC50 on CDK2/Cyclin E1 was 0.1 to 1 µM; in the experiment with Kuramochi cells (72 h), above 10 µM.
The like results for `CC(c1nc(C2CN(C(=O)c3cncs3)CC23CN(C(=O)[C@H]2CC2(C)C)C3)no1)n1ccc(C2CCOCC2)n1` (some centres unmarked) [I-82] were, in that order, 0.1 to 1 µM and above 10 µM.
The like results for `CC1(C)C[C@@H]1C(=O)N1CC2(CN(C(=O)c3cncs3)CC2c2nnc(C(F)(F)c3ccc(C#N)cc3)o2)C1` (some centres unmarked) [I-72] were, in that order, 1 to 10 µM and above 10 µM.
Consider `Cc1nc(C)c(C(=O)N2CC(c3nnc(C(F)(F)c4ccc(Cl)c(Cl)c4)o3)C3(C2)CN(C(=O)[C@H]2CC2(F)F)C3)s1` (stereo partly drawn) [I-103, (8-(5-((3,4-dichlorophenyl)difluoromethyl)-1,3,4-oxadiazol-2-yl)-2-((R)-2,2-difluorocyclopropane-1-carbonyl)-2,6-diazaspiro[3.4]octan-6-yl)(2,4-dimethylthiazol-5-yl)methanone], for which the IC50 on CDK2/Cyclin E1 and in the experiment on Kuramochi cells (72 h) was above 10 µM throughout.
For the compound `O=C(c1noc2ccccc12)N1CC(c2nnc(C(F)(F)c3ccc(Cl)c(Cl)c3)o2)C2(C1)CN(C(=O)[C@H]1CC1(F)F)C2` (stereo partly drawn) [I-156, benzo[d]isoxazol-3-yl(8-(5-((3,4-dichlorophenyl)difluoromethyl)-1,3,4-oxadiazol-2-yl)-2-((R)-2,2-difluorocyclopropane-1-carbonyl)-2,6-diazaspiro[3.4]octan-6-yl)methanone], the IC50 on CDK2/Cyclin E1 and in the experiment on Kuramochi cells (72 h) was above 10 µM in each case.
